Measurements as given in patent publication US20260042764A1, “COMPOSITIONS AND METHODS FOR INHIBITION OF KRAS” (TheRas, Inc., priority 2022, published 2026).

Columns and labels:
[1] = target: T1, Avi-KRAS G12D (1-169) GppNHp/RAF1 RBD-3xFLAG (52-151) (Homo sapiens, UniProt P01116, G12D); assay: Raf1-KRAS G12D-GppNHP disruption HTRF assay (Biological Example 1); assay type: binding
T1 construct: Avi-KRAS G12D (1-169)
Method in brief: (§1)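 Protein mix, 1 h RT, 700 rpm; reagent mix, 1 h RT, 700 rpm; HTRF read. Buffer Tris pH 7.5/NaCl/MgCl2/BSA/Tween, 10% DMSO. Output % activity, DMSO = 100%.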

[2] = target: T2, Avi-KRAS G12R (1-169) GppNHp/RAF1 RBD-3xFLAG (52-151) (Homo sapiens, UniProt P01116, G12R); assay: Raf1-KRAS G12R-GppNHP disruption HTRF assay (Biological Example 1); assay type: binding
T2 construct: Avi-KRAS G12R (1-169)
Method in brief: as §1

[3] = target: T3, Avi-KRAS G12V (1-169) GppNHp/RAF1 RBD-3xFLAG (52-151) (Homo sapiens, UniProt P01116, G12V); assay: Raf1-KRAS G12V-GppNHP disruption HTRF assay (Biological Example 1); assay type: binding
T3 construct: Avi-KRAS G12V (1-169)
Method in brief: as §1

[4] = target: T4, Avi-KRAS WT (1-169) GppNHp/RAF1 RBD-3xFLAG (52-151) (Homo sapiens, UniProt P01116); assay: Raf1-KRAS WT-GppNHP disruption HTRF assay (Biological Example 1); assay type: binding
T4 construct: Avi-KRAS WT (1-169)
Method in brief: as §1

GP2d cells (KRAS G12D) = assay: Cell-based pERK HTRF assay in GP2d cell (Biological Example 2); settings: GP2d (KRAS G12D) cells, pERK HTRF
Method in brief: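 Treatment with test compounds lasted one hour in DMEM containing 10% FBS, with DMSO held at 0.25%. Dilution series: 9 points, half-log spacing, highest 1 μM or 100 nM. Lysates were incubated 4–24 h at room temperature with antibody mix, then HTRF was read at 320 nm excitation.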

SW620 cells (KRAS G12V) = assay: Cell-based pERK HTRF assay in SW620 cell (Biological Example 4); settings: pERK HTRF
Method in brief: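 SW620 seeded in RPMI/10% FBS, next day dosed 4 h (top 1 μM, half-log, 9 pts, 0.25% DMSO). Lysed, pERK by d2/Eu cryptate HTRF, 4–24 h RT, 615 nm read.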

[5] = KRAS G12D, GppNHp-loaded, Table 11
[6] = KRAS G12R, GppNHp-loaded, Table 11
[7] = KRAS G12V, GppNHp-loaded, Table 11
[8] = KRAS WT, GppNHp-loaded, Table 11
[9] = Homo sapiens, SW-620, SW620 (KRAS G12V) cells

T2 sequence (P01116 1-169 isoform P01116-2 G12R): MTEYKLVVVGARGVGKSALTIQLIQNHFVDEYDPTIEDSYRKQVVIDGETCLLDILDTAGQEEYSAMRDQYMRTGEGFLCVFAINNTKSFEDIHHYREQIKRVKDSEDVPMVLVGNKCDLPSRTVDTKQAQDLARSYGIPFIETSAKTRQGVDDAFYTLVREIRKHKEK
T3 sequence (P01116 1-169 isoform P01116-2 G12V): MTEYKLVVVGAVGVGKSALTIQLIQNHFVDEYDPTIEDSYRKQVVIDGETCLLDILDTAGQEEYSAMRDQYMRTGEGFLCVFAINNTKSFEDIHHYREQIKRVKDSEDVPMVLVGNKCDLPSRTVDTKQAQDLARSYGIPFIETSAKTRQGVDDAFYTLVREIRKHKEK
T1 sequence (P01116 1-169 isoform P01116-2 G12D): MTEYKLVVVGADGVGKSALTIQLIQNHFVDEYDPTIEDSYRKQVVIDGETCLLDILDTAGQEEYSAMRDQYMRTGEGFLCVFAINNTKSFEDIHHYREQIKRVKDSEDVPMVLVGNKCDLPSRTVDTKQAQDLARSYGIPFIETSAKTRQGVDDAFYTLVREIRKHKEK
T4 sequence (P01116 1-169 isoform P01116-2): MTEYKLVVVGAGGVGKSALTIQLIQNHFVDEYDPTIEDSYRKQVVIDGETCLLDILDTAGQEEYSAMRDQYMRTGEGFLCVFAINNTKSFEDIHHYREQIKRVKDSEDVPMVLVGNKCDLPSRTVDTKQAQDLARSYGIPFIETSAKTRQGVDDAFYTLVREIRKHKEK

| SMILES | IC50 [1, 5] [nM] | IC50 [2, 6] [nM] | IC50 [3, 7] [nM] | IC50 [4, 8] [nM] | IC50 (GP2d cells (KRAS G12D)) [nM] | IC50 (SW620 cells (KRAS G12V); SW620 (KRAS G12V) cells) [nM] | IC50 (SW620 cells (KRAS G12V); [9]) [nM] | IC50 ([1]; KRAS G12D-GppNHp/RAF1 RBD HTRF) [nM] | IC50 ([2]; KRAS G12R-GppNHp/RAF1 RBD HTRF) [nM] | IC50 ([3]; KRAS G12V-GppNHp/RAF1 RBD HTRF) [nM] | IC50 ([4]; KRAS WT-GppNHp/RAF1 RBD HTRF) [nM] | IC50 (GP2d cells (KRAS G12D); GP2d) [nM] |
| --- | --- | --- | --- | --- | --- | --- | --- | --- | --- | --- | --- | --- |
| CC(=O)N1CC[C@H](N(C)c2nc(OC[C@@]34CCCN3C[C@H](F)C4)nc3c(F)c(-c4ccc(F)c5sc(N)c(C#N)c45)c(C(F)(F)F)cc23)[C@@H]1C (single isomer, unassigned) [Compound 195] | 1000 to 10000 | 1000 to 10000 | 1000 to 10000 | 1000 to 10000 | 100 to 1000 | 100 to 1000 | – | – | – | – | – | – |
| CCN(C)c1nc(OC[C@@]23CCCN2C[C@H](F)C3)nc2c(F)c(-c3ccc(F)c4sc(N)c(C#N)c34)c(C(F)(F)F)cc12 (single isomer, unassigned) [Compound 196] | < 100 | < 100 | 100 to 1000 | < 100 | < 100 | – | < 100 | – | – | – | – | – |
| N#Cc1c(N)sc2c(F)ccc(-c3c(C(F)(F)F)cc4c(N5CCOCC5)nc(OC[C@@]56CCCN5C[C@H](F)C6)nc4c3F)c12 (single isomer, unassigned) [Compound 199] | > 10000 | > 10000 | > 10000 | > 10000 | > 1000 | > 1000 | – | – | – | – | – | – |
| CN(c1nc(OC[C@@]23CCCN2C[C@H](F)C3)nc2c(F)c(-c3ccc(F)c4sc(N)c(C#N)c34)c(C(F)(F)F)cc12)[C@H]1CCS(=O)(=O)C1 (single isomer, unassigned) [Compound 220] | > 10000 | > 10000 | > 10000 | > 10000 | > 1000 | > 1000 | – | – | – | – | – | – |
| CN(c1nc(OC[C@@]23CCCN2C[C@H](F)C3)nc2c(F)c(-c3ccc(F)c4sc(N)c(C#N)c34)c(C(F)(F)F)cc12)[C@H]1CCS(=O)(=O)C1 (single isomer, unassigned) [Compound 221] | 100 to 1000 | 100 to 1000 | 100 to 1000 | 100 to 1000 | < 100 | < 100 | – | – | – | – | – | – |
| N#Cc1c(N)sc2c(F)ccc(-c3c(C(F)(F)F)cc4c(N5CC6CC(C5)O6)nc(OC[C@@]56CCCN5C[C@H](F)C6)nc4c3F)c12 (single isomer, unassigned) [Compound 276] | 1000 to 10000 | 1000 to 10000 | > 10000 | 1000 to 10000 | > 1000 | 100 to 1000 | – | – | – | – | – | – |
| N#Cc1c(N)sc2c(F)ccc(-c3c(C(F)(F)F)cc4c(N5C[C@H]6C[C@@H]5CO6)nc(OC[C@@]56CCCN5C[C@H](F)C6)nc4c3F)c12 (single isomer, unassigned) [Compound 288] | – | – | – | – | 100 to 1000 | 100 to 1000 | – | > 10000 | > 10000 | > 10000 | > 10000 | – |
| N#Cc1c(N)sc2c(F)ccc(-c3c(C(F)(F)F)cc4c(N5CCS(=O)(=O)CC5)nc(OC[C@@]56CCCN5C[C@H](F)C6)nc4c3F)c12 [Compound 91] | 100 to 1000 | 100 to 1000 | 100 to 1000 | 100 to 1000 | – | – | < 100 | – | – | – | – | < 100 |
| CC(=O)N1CC[C@@H](N(C)c2nc(OC[C@@]34CCCN3C[C@H](F)C4)nc3c(F)c(-c4ccc(F)c5sc(N)c(C#N)c45)c(C(F)(F)F)cc23)C1 [Compound 112] | 100 to 1000 | 100 to 1000 | 100 to 1000 | 100 to 1000 | – | – | < 100 | – | – | – | – | < 100 |
| N#Cc1c(N)sc2c(F)ccc(-c3c(C(F)(F)F)cc4c(N5CCOC6CC65)nc(OC[C@@]56CCCN5C[C@H](F)C6)nc4c3F)c12 (stereo partly drawn) [Compound 148] | 100 to 1000 | 100 to 1000 | 100 to 1000 | 100 to 1000 | – | – | < 100 | – | – | – | – | < 100 |
| CN(c1nc(OC[C@@]23CCCN2C[C@H](F)C3)nc2c(F)c(-c3ccc(F)c4sc(N)c(C#N)c34)c(C(F)(F)F)cc12)C1CC(F)(F)C1 [Compound 162] | 100 to 1000 | 100 to 1000 | 1000 to 10000 | 100 to 1000 | – | – | < 100 | – | – | – | – | < 100 |
| CN(CC(F)(F)F)c1nc(OC[C@@]23CCCN2C[C@H](F)C3)nc2c(F)c(-c3ccc(F)c4sc(N)c(C#N)c34)c(C(F)(F)F)cc12 [Compound 165] | 100 to 1000 | 100 to 1000 | 100 to 1000 | 100 to 1000 | – | – | < 100 | – | – | – | – | < 100 |
| COCCN(C)c1nc(OC[C@@]23CCCN2C[C@H](F)C3)nc2c(F)c(-c3ccc(F)c4sc(N)c(C#N)c34)c(C(F)(F)F)cc12 [Compound 167] | 100 to 1000 | 100 to 1000 | 100 to 1000 | 100 to 1000 | – | – | < 100 | – | – | – | – | < 100 |
| CC(=O)N1C[C@@H](F)[C@H](N(C)c2nc(OC[C@@]34CCCN3C[C@H](F)C4)nc3c(F)c(-c4ccc(F)c5sc(N)c(C#N)c45)c(C(F)(F)F)cc23)C1 [Compound 186] | 100 to 1000 | 100 to 1000 | 100 to 1000 | 100 to 1000 | – | – | 100 to 1000 | – | – | – | – | < 100 |
| CC(=O)N1C[C@@H](N(C)c2nc(OC[C@@]34CCCN3C[C@H](F)C4)nc3c(F)c(-c4ccc(F)c5sc(N)c(C#N)c45)c(C(F)(F)F)cc23)[C@@H](F)C1 [Compound 187] | < 100 | 100 to 1000 | 100 to 1000 | 100 to 1000 | – | – | < 100 | – | – | – | – | < 100 |
| CC(=O)N1CC[C@@H](N(C)c2nc(OC[C@@]34CCCN3C[C@H](F)C4)nc3c(F)c(-c4ccc(F)c5sc(N)c(C#N)c45)c(C(F)(F)F)cc23)[C@@H]1C [Compound 190, 4-(4-(((2S,3R)-1-acetyl-2-methylpyrrolidin-3-yl)(methyl)amino)-8-fluoro-2-(((2R,7aS)-2-fluorotetrahydro-1H-pyrrolizin-7a(5H)-yl)methoxy)-6-(trifluoromethyl)quinazolin-7-yl)-2-amino-7-fluorobenzo[b]thiophene-3-carbonitrile] | 100 to 1000 | 100 to 1000 | 100 to 1000 | 100 to 1000 | – | – | 100 to 1000 | – | – | – | – | < 100 |
| C[C@H]1COC[C@H](C)N1c1nc(OC[C@@]23CCCN2C[C@H](F)C3)nc2c(F)c(-c3ccc(F)c4sc(N)c(C#N)c34)c(C(F)(F)F)cc12 [Compound 200] | 1000 to 10000 | 1000 to 10000 | 1000 to 10000 | 1000 to 10000 | – | – | 100 to 1000 | – | – | – | – | < 100 |
